Assay results reported in PMC8268887, “Peptide/β-Peptoid Hybrids with Ultrashort PEG-Like Moieties: Effects on Hydrophobicity, Antibacterial Activity and Hemolytic Properties” (International Journal of Molecular Sciences, 2021).
In brackets after ≈: the same amount, converted by molar mass. Read-outs that look alike come from different tables or passages of the source.

Tests used:
E. coli NMI 3371/16 = type: cell-based, Escherichia coli; conditions: NMI 3371/16, 20 h
Experimental: (§1) MIC values of the peptidomimetics were evaluated by using the modified Hancock lab protocol in non-binding polystyrene microtiter plates. Bacterial suspensions of ~5 × 10^5 CFU/mL in Mueller-Hinton broth (Difco, Sparks, MD, USA) were prepared with Mg^2+ and Ca^2+ concentrations of 4 mg/L each. The compounds were dissolved in H2O and diluted in 0.01% acetic acid, 0.2% BSA (final concentration). Aliquots (11 µL) of test compounds were then transferred to wells containing bacterial suspensions (100 µL). Low-binding sterile tubes and tips (Axygen, Union City, CA, USA) were used for preparation and transfer of the solutions of the compounds. Following incubation for 20 h of the covered plates at 35 °C (±2 °C) with circular shaking at 180 rpm, the MICs were read.

E. coli ATCC 25922 = type: cell-based, Escherichia coli; conditions: ATCC 25922, 20 h
Experimental: as §1

E. coli NMI 3898/15 = type: cell-based, Escherichia coli; conditions: NMI 3898/15, 20 h
Experimental: as §1

[1] = Determination of hemolytic activity; type: cell-based; conditions: red blood cell suspension in PBS buffer, human red blood cells at 400 µg/mL, 37 °C
Experimental: The lysis of human red blood cells was measured almost as previously described, albeit with modifications. In brief, a suspension of freshly drawn human red blood cells (hRBCs) was washed three times with PBS buffer and centrifuged two times for 5 min at 2500 rpm. A two-fold serial dilution of compounds in PBS buffer was prepared. Plates (conical-bottomed 96-well plates) with three replicate wells per dilution, each containing 1% red blood cell suspension, were prepared and dosed with the test compound to achieve a final concentration of 400 μg/mL in a total volume of 100 μL. The plates were incubated (37 °C) for 60 min with mild agitation, and then the cells were pelleted by centrifugation at 1500 rpm for 5 min. The supernatants (50 μL) were then transferred to a fresh 96-well plate, and the concentration of hemoglobin was detected by measuring the OD at 405 nm. The OD of cells incubated with 1% SDS defined 100% hemolysis, while the OD of cells incubated with PBS buffer defined 0% hemolysis. The concentration tested was 400 μg/mL (only average values are stated in Table 5). The percent hemolysis was calculated by using the formula:(3) Hemolysis (%)=100×[Asample−Aneg.control/Apos.control−Aneg.control]

[2] = Antiproliferative activity on HepG2 cell line (MTT assay); type: cell-based; conditions: HepG2 cells; at 1280 µg/mL, value in parenthesis; read-out: HepG2 cell viability at highest concentration tested
Experimental: (§2) Effect of compounds on mammalian cell viability was estimated on the HepG2 cell line ATCC HB-8065. In brief, HepG2 cells were seeded into flat-bottomed 96-well plates at a concentration of 5000 cells per well. Subsequently, the cells were incubated for 24 h in a humidified incubator (5% CO2, 37 °C). Then, the medium was removed, and the cells were incubated for 48 h in a humidified incubator (5% CO2, 37 °C) with peptidomimetics in serial dilutions. Then, an 3-(4,5-dimethylthiazol-2-yl)-2,5-diphenyltetrazolium bromide (MTT) assay was performed as previously described. In brief, after incubation with the test compounds, the culture medium was removed, and then fresh medium with 0.2 mg/mL MTT was added into each well of the plate. The cells were then incubated (3 h, 37 °C, 5% CO2), followed by removal of the medium with MTT and addition of 200 μL dimethyl sulfoxide at once to each sample. Absorbance of MTT was measured using the spectrophotometer TECAN Infinite M1000 at 540 nm. The relative viability was calculated by using the formula: ODtreated cells × 100/ODcontrol cells. The IC50 values are calculated by using the program Graph Pad Prism® 5.0. For all compounds, the test range was 10–1280 μg/mL.

[3] = test system: HepG2 cell line ATCC HB-8065; assay: as above; type: cell-based; conditions: inhibition of growth of HepG2 cells, 48 h, MTT; highest concentration tested 1280 µg/mL
Experimental: as §2

E. faecalis ATCC 29212 = type: cell-based; conditions: ATCC 29212, 20 h
Experimental: as §1

K. pneumoniae ATCC 13883 = type: cell-based
Experimental: as §1

| Compound | MIC, E. coli NMI 3371/16 (E. coli NMI 3371/16) [µg/mL] | MIC, EC (E. coli ATCC 25922) [µg/mL] | MIC, E. coli NMI 3898/15 (E. coli NMI 3898/15) [µg/mL] | HepG2 IC50 [3] [µg/mL] | MIC, EF (E. faecalis ATCC 29212) [µg/mL] | MIC, KP (K. pneumoniae ATCC 13883; ATCC 13883, 20 h) [µg/mL] | MIC, KP (K. pneumoniae ATCC 13883) | MIC against E. coli (E. coli ATCC 25922) [µM] | hemolysis at 60 min [1] [%] | viability at 48 h [2] [%] |
| --- | --- | --- | --- | --- | --- | --- | --- | --- | --- | --- |
| NCCCC[C@H](NC(=O)CCN(Cc1ccc(F)cc1)C(=O)[C@H](CCCCN)NC(=O)CCN(Cc1ccc(F)cc1)C(=O)[C@H](CCCCN)NC(=O)COCCOCCNC(=O)CCN(Cc1ccc(F)cc1)C(=O)[C@H](CCCCN)NC(=O)CCN(Cc1ccc(F)cc1)C(=O)[C@H](CCCCN)NC(=O)CCN(Cc1ccc(F)cc1)C(=O)[C@@H](N)CCCCN)C(=O)N(CCC(N)=O)Cc1ccc(F)cc1 [Compound 7, H-[X]3-sPEG2-[X]3-NH2] | 4 (≈ 1.99 µM) | 4 (≈ 1.99 µM) | 8 (≈ 3.99 µM) | 619 |  | >64 |  |  | 6.1 | 10 |
| NCCCC[C@H](NC(=O)CCN(Cc1ccc(F)cc1)C(=O)[C@H](CCCCN)NC(=O)CCN(Cc1ccc(F)cc1)C(=O)[C@H](CCCCN)NC(=O)COCCN)C(=O)N(CCC(=O)NCCOCC(=O)N[C@@H](CCCCN)C(=O)N(CCC(=O)N[C@@H](CCCCN)C(=O)N(CCC(=O)N[C@@H](CCCCN)C(=O)N(CCC(=O)NCCOCC(N)=O)Cc1ccc(F)cc1)Cc1ccc(F)cc1)Cc1ccc(F)cc1)Cc1ccc(F)cc1 [Compound 11, H-sPEG1-[X]3-sPEG1-[X]3-sPEG1-NH2] | 8 (≈ 3.7 µM) | 8 (≈ 3.7 µM) | 16 (≈ 7.39 µM) |  | >64 | >64 |  |  | 4.6 |  |
| NCCCC[C@H](NC(=O)CCN(Cc1ccc(F)cc1)C(=O)[C@H](CCCCN)NC(=O)COCCOCCNC(=O)CCN(Cc1ccc(F)cc1)C(=O)[C@H](CCCCN)NC(=O)CCN(Cc1ccc(F)cc1)C(=O)[C@H](CCCCN)NC(=O)COCCOCCNC(=O)CCN(Cc1ccc(F)cc1)C(=O)[C@H](CCCCN)NC(=O)CCN(Cc1ccc(F)cc1)C(=O)[C@@H](N)CCCCN)C(=O)N(CCC(N)=O)Cc1ccc(F)cc1 [Compound 16, H-[X]2-sPEG2-[X]2-sPEG2-[X]2-NH2] | 4 (≈ 1.86 µM) | 2 to 4 | 8 (≈ 3.72 µM) | 687 | >64 | 64 (≈ 29.7 µM) |  | 0.7 to 1.4 | 5.7 | 27 |
| NCCCC[C@H](NC(=O)CCN(Cc1ccc(F)cc1)C(=O)[C@H](CCCCN)NC(=O)CCN(Cc1ccc(F)cc1)C(=O)[C@H](CCCCN)NC(=O)COCCOCCOCCN)C(=O)N(CCC(=O)NCCOCCOCCOCC(=O)N[C@@H](CCCCN)C(=O)N(CCC(=O)N[C@@H](CCCCN)C(=O)N(CCC(=O)N[C@@H](CCCCN)C(=O)N(CCC(=O)NCCOCCOCCOCC(N)=O)Cc1ccc(F)cc1)Cc1ccc(F)cc1)Cc1ccc(F)cc1)Cc1ccc(F)cc1 [Compound 13, H-sPEG3-[X]3-sPEG3-[X]3-sPEG3-NH2] | 8 (≈ 3.29 µM) | 8 to 16 | 16 (≈ 6.59 µM) |  | >64 | >64 |  |  | 7.8 |  |
| NCCCC[C@H](NC(=O)CCN(Cc1ccc(F)cc1)C(=O)[C@H](CCCCN)NC(=O)COCCNC(=O)CCN(Cc1ccc(F)cc1)C(=O)[C@H](CCCCN)NC(=O)CCN(Cc1ccc(F)cc1)C(=O)[C@H](CCCCN)NC(=O)COCCNC(=O)CCN(Cc1ccc(F)cc1)C(=O)[C@H](CCCCN)NC(=O)CCN(Cc1ccc(F)cc1)C(=O)[C@@H](N)CCCCN)C(=O)N(CCC(N)=O)Cc1ccc(F)cc1 [Compound 15, H-[X]2-sPEG1-[X]2-sPEG1-[X]2-NH2] | 4 (≈ 1.94 µM) | 4 (≈ 1.94 µM) | 8 (≈ 3.88 µM) | 568 | >64 |  | 64–>64 |  | 4.8 | 26 |

The next lines start with results.

| MIC, E. coli NMI 3371/16 (E. coli NMI 3371/16) [µg/mL] | MIC, EC (E. coli ATCC 25922) [µg/mL] | MIC, E. coli NMI 3898/15 (E. coli NMI 3898/15) [µg/mL] | HepG2 IC50 [3] [µg/mL] | MIC, EF (E. faecalis ATCC 29212) [µg/mL] | MIC, KP (K. pneumoniae ATCC 13883; ATCC 13883, 20 h) [µg/mL] | MIC, KP (K. pneumoniae ATCC 13883) | MIC against E. coli (E. coli ATCC 25922) [µM] | Compound | hemolysis at 60 min [1] [%] | viability at 48 h [2] [%] |
| --- | --- | --- | --- | --- | --- | --- | --- | --- | --- | --- |
| 16 (≈ 6.15 µM) | 16 (≈ 6.15 µM) | 32 (≈ 12.3 µM) | 450 | >64 | >64 |  |  | NCCCC[C@H](NC(=O)CCN(Cc1ccc(F)cc1)C(=O)[C@H](CCCCN)NC(=O)CCN(Cc1ccc(F)cc1)C(=O)[C@H](CCCCN)NC(=O)CCOCCOCCOCCOCCN)C(=O)N(CCC(=O)NCCOCCOCCOCCOCCC(=O)N[C@@H](CCCCN)C(=O)N(CCC(=O)N[C@@H](CCCCN)C(=O)N(CCC(=O)N[C@@H](CCCCN)C(=O)N(CCC(=O)NCCOCCOCCOCCOCCC(N)=O)Cc1ccc(F)cc1)Cc1ccc(F)cc1)Cc1ccc(F)cc1)Cc1ccc(F)cc1 [Compound 14, H-sPEG4-[X]3-sPEG4-[X]3-sPEG4-NH2] | 9 | 44 |
| 8 (≈ 4.3 µM) | 4 to 8 | 8 (≈ 4.3 µM) | 464 | >64 |  | 64–>64 |  | NCCCC[C@H](NC(=O)CCN(Cc1ccc(F)cc1)C(=O)[C@H](CCCCN)NC(=O)CCN(Cc1ccc(F)cc1)C(=O)[C@H](CCCCN)NC(=O)CCN(Cc1ccc(F)cc1)C(=O)[C@H](CCCCN)NC(=O)CCN(Cc1ccc(F)cc1)C(=O)[C@H](CCCCN)NC(=O)CCN(Cc1ccc(F)cc1)C(=O)[C@@H](N)CCCCN)C(=O)N(CCC(N)=O)Cc1ccc(F)cc1 [Compound 1, H-[Lys-βNPhe(4-F)]6-NH2] | 6.6 | 0 |
| 4 to 8 | 4 (≈ 1.9 µM) | 16 (≈ 7.59 µM) | 693 | >64 | >64 |  |  | NCCCC[C@H](NC(=O)CCN(Cc1ccc(F)cc1)C(=O)[C@H](CCCCN)NC(=O)CCN(Cc1ccc(F)cc1)C(=O)[C@H](CCCCN)NC(=O)CCOCCOCCOCCOCCNC(=O)CCN(Cc1ccc(F)cc1)C(=O)[C@H](CCCCN)NC(=O)CCN(Cc1ccc(F)cc1)C(=O)[C@H](CCCCN)NC(=O)CCN(Cc1ccc(F)cc1)C(=O)[C@@H](N)CCCCN)C(=O)N(CCC(N)=O)Cc1ccc(F)cc1 [Compound 9, H-[X]3-sPEG4-[X]3-NH2] | 7.1 | 9 |
| 8 (≈ 3.48 µM) | 8 to 16 | 16 (≈ 6.97 µM) | 332 | >64 | >64 |  |  | NCCCC[C@H](NC(=O)CCN(Cc1ccc(F)cc1)C(=O)[C@H](CCCCN)NC(=O)CCN(Cc1ccc(F)cc1)C(=O)[C@H](CCCCN)NC(=O)COCCOCCN)C(=O)N(CCC(=O)NCCOCCOCC(=O)N[C@@H](CCCCN)C(=O)N(CCC(=O)N[C@@H](CCCCN)C(=O)N(CCC(=O)N[C@@H](CCCCN)C(=O)N(CCC(=O)NCCOCCOCC(N)=O)Cc1ccc(F)cc1)Cc1ccc(F)cc1)Cc1ccc(F)cc1)Cc1ccc(F)cc1 [Compound 12, H-sPEG2-[X]3-sPEG2-[X]3-sPEG2-NH2] | 8.1 | 34 |
| 4 to 16 | 4 to 8 | 8 to 32 | 800 | >64 | 64 (≈ 29.1 µM) |  |  | NCCCC[C@H](NC(=O)CCN(Cc1ccc(F)cc1)C(=O)[C@H](CCCCN)NC(=O)CCN(Cc1ccc(F)cc1)C(=O)[C@H](CCCCN)NC(=O)CCOCCOCCOCCOCCOCCOCCNC(=O)CCN(Cc1ccc(F)cc1)C(=O)[C@H](CCCCN)NC(=O)CCN(Cc1ccc(F)cc1)C(=O)[C@H](CCCCN)NC(=O)CCN(Cc1ccc(F)cc1)C(=O)[C@@H](N)CCCCN)C(=O)N(CCC(N)=O)Cc1ccc(F)cc1 [Compound 10, H-[X]3-sPEG6-[X]3-NH2] | 6.3 | 27 |
